Key:
[1] = test system: acquired lymphedema surgically induced in the tails of female C57BL/6J mice; assay: mouse-tail model of acquired lymphedema (tail volume, histology); type: in vivo; conditions: for amelioration of lymphedema (serial tail-volume measurements over 24d): therapies started on post-surgery d3 (late LTB4 antagonism)
Experimental: Surgical induction of experimental lymphatic vascular insufficiency. […] Briefly, a full-thickness circumferential incision of the skin was made 16 mm distal to the base of the mouse tail under anesthesia. Lymphatic trunks were ablated through controlled, limited cautery application under the surgical microscope. For surgical controls (sham animals), the skin incision alone was performed without lymphatic cautery.
(§1) All small molecule drugs were administered through daily intraperitoneal injection.
Tail volume quantitation. Tail-volume measurements at each designated time were quantified by observers blinded to the treatment status of the subjects. Tail volumes were calculated through a digital photographic technique pre-operatively, and post-operatively (d3, d9, d14, d20, and d24), using an Olympus D520 Zoom digital camera at SHQ resolution at a fixed distance from the subject (37 cm), as previously described. Tail volumes were derived from the measurement of the tail diameter using the truncated cone approximation. Microlymphangiography was performed by injecting FITC-dextran (size: 2000 kDa) subcutaneously into mouse tails on post-surgery d24. Images were taken 20 minutes after injection.
Viral particles were mixed with Lipofectamine 2,000 (5% final vol/vol, Invitrogen) before injection, to increase transduction efficiency. qRT-PCR, immunofluorescence and fluorescence in situ hybridization were used to evaluate the silencing efficiency in the mouse tail skin 24d after surgery.

LTB4 = assay: serum LTB4 levels in lymphedema mice; type: in vivo, mouse; conditions: therapies initiated on d3, assessed on d24
Experimental: as §1
Quantification of LTB4, PGE2 and S1P with LC-MS/MS. Briefly, LTB4, PGE2 and S1P were separated from serum with an ACE reverse phase C18 HPLC column. Formic acid 0.5% in 5 mM NH4Ac (A) and formic acid 0.5% in acetonitrile/water (9/1) (B) were used as the mobile phase. […] The internal standard of this method was Carbutamide. The quantification limit was 1 ng/ml. The calibration range was 1-2000 ng/ml.

Row | SMILES | benefit of LTB4 antagonism administered prior to surgery ([1]; therapies administered prior to sham and lymphedema surgery (bestatin, Ly293111 from d0, shLtb4r1 on d(−7))) | amelioration of lymphedema (serial tail-volume measurements over 24d) [1] | tail swelling ([1]; therapies initiated on d3) | tail histology (edema, epidermal/dermal junction) ([1]; treatment from d3) | serum LTB4 levels (LTB4)
1 | CCCc1c(OCCCOc2cc(O)c(-c3ccc(F)cc3)cc2CC)cccc1Oc1ccccc1C(=O)O [Ly293111, 2-[2-propyl-3-[3-[2-ethyl-4-(4-fluorophenyl)-5-hydroxyphenoxy]-propoxy]phenoxy]benzoic acid] | not beneficial | demonstrated therapeutic amelioration of lymphedema | – | – | –
2 | CC(C)Cc1ccc(C(C)C(=O)O)cc1 (stereo not shown) [ibuprofen] | – | – | not | unresolved edema, irregular epidermal/dermal junction | –
3 | CC(C(=O)O)c1cccc(C(=O)c2ccccc2)c1 (stereo not shown) [ketoprofen] | – | – | – | – | effectively reduced
4 | CC(c1cc2ccccc2s1)N(O)C(N)=O (stereo not shown) [zileuton, 1-[1-(1-benzothiophen-2-yl)ethyl]-1-hydroxyurea] | – | demonstrated therapeutic amelioration of lymphedema | – | – | effectively reduced
